From patent publication US12495798B2, “Nicotinamide compound and herbicidal composition comprising compound” (KOREA RESEARCH INSTITUTE OF CHEMICAL TECHNOLOGY, priority 2019, dated 2025)

Legend:
Assay type in all cases: in vivo
sorghum [1] = assay: Herbicidal activity test against upland field weeds (foliar treatment test); parameters: key to Foliar treatment herbicidal activity, Sorghum: 0 (no control); 100 (complete control); conditions: scale 0-100; for plant injury at 75 g/ha: Sorghum, 75 g ai/ha
Summary of the method: (§1)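 Weeds were raised from seed or rootstocks in horticultural soil in a greenhouse (30±5° C., 14/10 h light/dark), then foliage was hand-sprayed with compound at 50 or 75 g a.i./ha in 50% acetone with 0.1% Tween-20. Control was scored visually 0–100 against untreated plants after 14 days, or 21 if needed.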

barnyard grass [2] = assay: as above; conditions: Echinochloa crus-galli, scale 0-100; for pest or weed control at 75 g/ha: 75 g ai/ha
Summary of the method: as §1

quack grass [3] = assay: as above; parameters: key to Foliar treatment herbicidal activity, quack grass: 0 (no control); 100 (complete control); conditions: scale 0-100
Summary of the method: as §1

crabgrass [4] = assay: as above; conditions: Digitaria sanguinalis, scale 0-100; for pest or weed control at 75 g/ha: 75 g ai/ha
Summary of the method: as §1

fall panicum [5] = assay: as above; conditions: Panicum dichotomiflorum, scale 0-100; for pest or weed control at 75 g/ha: 75 g ai/ha
Summary of the method: as §1

black nightshade [6] = assay: as above; parameters: key to Foliar treatment herbicidal activity, black nightshade: 0 (no control); 100 (complete control); conditions: scale 0-100; for pest or weed control at 75 g/ha: Solanum nigrum, 75 g ai/ha
Summary of the method: as §1

indian jointvetch [7] = assay: as above; conditions: scale 0-100; for pest or weed control at 75 g/ha: 75 g ai/ha
Summary of the method: as §1

velvetleaf [8] = assay: as above; conditions: Abutilon theophrasti, scale 0-100, read-out: Foliar treatment herbicidal activity, velvet leaf; for pest or weed control at 75 g/ha: 75 g ai/ha
Summary of the method: as §1

cocklebur [9] = assay: as above; conditions: Xanthium strumarium, scale 0-100; for pest or weed control at 75 g/ha: 75 g ai/ha
Summary of the method: as §1

bindweed [10] = assay: as above; parameters: key to Foliar treatment herbicidal activity, Bindweed: 0 (no control); 100 (complete control); conditions: scale 0-100; for pest or weed control at 75 g/ha: 75 g ai/ha
Summary of the method: as §1

sorghum [11] = assay: Herbicidal activity test against upland field weeds (soil treatment test); parameters: key to Soil treatment herbicidal activity, Sorghum: 0 (no control); 100 (complete control); conditions: scale 0 (no control) to 100 (complete control)
Summary of the method: (§2)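 Pre-emergence test: seeds or rootstocks were sown in fertilized sandy loam, and the next day the soil surface was sprayed with compound at 50 or 75 g a.i./ha in 50% acetone/0.1% Tween-20. Plants were grown in a greenhouse (30±5 °C, 14/10 h light/dark), then visually scored 0–100 against untreated at 14 d (21 d if needed).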

barnyard grass [12] = assay: as above; parameters: key to Soil treatment herbicidal activity, barnyard grass: 0 (no control); 100 (complete control); conditions: scale 0 (no control) to 100 (complete control)
Summary of the method: as §2

quack grass [13] = assay: as above; parameters: key to Soil treatment herbicidal activity, quack grass: 0 (no control); 100 (complete control); conditions: scale 0 (no control) to 100 (complete control)
Summary of the method: as §2

crabgrass [14] = assay: as above; parameters: key to Soil treatment herbicidal activity, Crabgrass: 0 (no control); 100 (complete control); conditions: scale 0 (no control) to 100 (complete control)
Summary of the method: as §2

fall panicum [15] = assay: as above; conditions: Panicum dichotomiflorum, scale 0 (no control) to 100 (complete control); for pest or weed control at 75 g/ha: 75 g ai/ha
Summary of the method: as §2

black nightshade [16] = assay: as above; parameters: key to Soil treatment herbicidal activity, black nightshade: 0 (no control); 100 (complete control); conditions: scale 0 (no control) to 100 (complete control)
Summary of the method: as §2

indian jointvetch [17] = assay: as above; parameters: key to Soil treatment herbicidal activity, Indian jointvetch: 0 (no control); 100 (complete control); conditions: scale 0 (no control) to 100 (complete control)
Summary of the method: as §2

velvetleaf [18] = assay: as above; parameters: key to Soil treatment herbicidal activity, velvet leaf: 0 (no control); 100 (complete control); conditions: scale 0 (no control) to 100 (complete control)
Summary of the method: as §2

cocklebur [19] = assay: as above; parameters: key to Soil treatment herbicidal activity, Cocklebur: 0 (no control); 100 (complete control); conditions: scale 0 (no control) to 100 (complete control)
Summary of the method: as §2

bindweed [20] = assay: as above; parameters: key to Soil treatment herbicidal activity, Bindweed: 0 (no control); 100 (complete control); conditions: scale 0 (no control) to 100 (complete control)
Summary of the method: as §2

CCON(Cc1nnn(C)n1)c1nc(C(F)(F)F)ccc1C(=O)Nc1nnnn1C [Compound No. 2-31, 2-(ethoxy((2-methyl-2H-tetrazol-5-yl)methyl)amino)-N-(1-methyl-1H-tetrazol-5-yl)-6-(trifluoromethyl)nicotinamide]
Foliar treatment herbicidal activity, Sorghum (sorghum [1]; 50 g ai/ha): 0
pest or weed control at 50 g/ha (barnyard grass [2]; 50 g ai/ha): 90%
Foliar treatment herbicidal activity, quack grass (quack grass [3]; 50 g ai/ha): 0
pest or weed control at 50 g/ha (crabgrass [4]; 50 g ai/ha): 60%
pest or weed control at 50 g/ha (fall panicum [5]; 50 g ai/ha): 40%
Foliar treatment herbicidal activity, black nightshade (black nightshade [6]; 50 g ai/ha): 100
pest or weed control at 50 g/ha (indian jointvetch [7]; 50 g ai/ha): 40%
pest or weed control at 50 g/ha (velvetleaf [8]; 50 g ai/ha): 70%
pest or weed control at 50 g/ha (cocklebur [9]; 50 g ai/ha): 70%
Foliar treatment herbicidal activity, Bindweed (bindweed [10]; 50 g ai/ha): 0
Soil treatment herbicidal activity, Sorghum (sorghum [11]; 50 g ai/ha): 0
Soil treatment herbicidal activity, barnyard grass (barnyard grass [12]; 50 g ai/ha): 100
Soil treatment herbicidal activity, quack grass (quack grass [13]; 50 g ai/ha): 0
pest or weed control at 50 g/ha (crabgrass [14]; Digitaria sanguinalis, 50 g ai/ha): 98%
pest or weed control at 50 g/ha (fall panicum [15]; 50 g ai/ha): 95%
Soil treatment herbicidal activity, black nightshade (black nightshade [16]; 50 g ai/ha): 100
pest or weed control at 50 g/ha (indian jointvetch [17]; 50 g ai/ha): 98%
Soil treatment herbicidal activity, velvet leaf (velvetleaf [18]; 50 g ai/ha): 100
pest or weed control at 50 g/ha (cocklebur [19]; Xanthium strumarium, 50 g ai/ha): 30%
Soil treatment herbicidal activity, Bindweed (bindweed [20]; 50 g ai/ha): 0

CN(CCOCc1nnn(C)n1)c1nc(C(F)(F)F)ccc1C(=O)Nc1nnnn1C [Compound No. 2-34, 2-(methyl(2-((2-methyl-2H-tetrazol-5-yl)methoxy)ethyl)amino)-N-(1-methyl-1H-tetrazol-5-yl)-6-(trifluoromethyl)nicotinamide]
plant injury at 75 g/ha (sorghum [1]): 20%
pest or weed control at 75 g/ha (barnyard grass [2]): 70%
Foliar treatment herbicidal activity, quack grass (quack grass [3]; 75 g ai/ha): 0
pest or weed control at 75 g/ha (crabgrass [4]): 60%
pest or weed control at 75 g/ha (fall panicum [5]): 40%
pest or weed control at 75 g/ha (black nightshade [6]): 95%
pest or weed control at 75 g/ha (indian jointvetch [7]): 60%
pest or weed control at 75 g/ha (velvetleaf [8]): 50%
pest or weed control at 75 g/ha (cocklebur [9]): 40%
pest or weed control at 75 g/ha (bindweed [10]): 50%
Soil treatment herbicidal activity, Sorghum (sorghum [11]; 75 g ai/ha): 0
pest or weed control at 75 g/ha (barnyard grass [12]; Echinochloa crus-galli, 75 g ai/ha): 60%
Soil treatment herbicidal activity, quack grass (quack grass [13]; 75 g ai/ha): 0
pest or weed control at 75 g/ha (crabgrass [14]; Digitaria sanguinalis, 75 g ai/ha): 70%
pest or weed control at 75 g/ha (fall panicum [15]): 80%
pest or weed control at 75 g/ha (black nightshade [16]; Solanum nigrum, 75 g ai/ha): 95%
pest or weed control at 75 g/ha (indian jointvetch [17]; 75 g ai/ha): 70%
pest or weed control at 75 g/ha (velvetleaf [18]; Abutilon theophrasti, 75 g ai/ha, read-out: Soil treatment herbicidal activity, velvet leaf): 60%
Soil treatment herbicidal activity, Cocklebur (cocklebur [19]; 75 g ai/ha): 0
Soil treatment herbicidal activity, Bindweed (bindweed [20]; 75 g ai/ha): 0

CN(CCc1nnn(C)n1)c1nc(C(F)(F)F)ccc1C(=O)Nc1nnnn1C [Compound No. 2-36, 2-(methyl(2-(2-methyl-2H-tetrazol-5-yl)ethyl)amino)-N-(1-methyl-1H-tetrazol-5-yl)-6-(trifluoromethyl)nicotinamide]
plant injury at 75 g/ha (sorghum [1]): 20%
pest or weed control at 75 g/ha (barnyard grass [2]): 90%
Foliar treatment herbicidal activity, quack grass (quack grass [3]; 75 g ai/ha): 0
pest or weed control at 75 g/ha (crabgrass [4]): 60%
pest or weed control at 75 g/ha (fall panicum [5]): 50%
pest or weed control at 75 g/ha (black nightshade [6]): 95%
pest or weed control at 75 g/ha (indian jointvetch [7]): 60%
pest or weed control at 75 g/ha (velvetleaf [8]): 50%
pest or weed control at 75 g/ha (cocklebur [9]): 70%
pest or weed control at 75 g/ha (bindweed [10]): 70%
plant injury at 75 g/ha (sorghum [11]; Sorghum, 75 g ai/ha): 20%
Soil treatment herbicidal activity, barnyard grass (barnyard grass [12]; 75 g ai/ha): 100
pest or weed control at 75 g/ha (quack grass [13]; 75 g ai/ha): 10%
Soil treatment herbicidal activity, Crabgrass (crabgrass [14]; 75 g ai/ha): 100
pest or weed control at 75 g/ha (fall panicum [15]): 98%
Soil treatment herbicidal activity, black nightshade (black nightshade [16]; 75 g ai/ha): 100
Soil treatment herbicidal activity, Indian jointvetch (indian jointvetch [17]; 75 g ai/ha): 100
Soil treatment herbicidal activity, velvet leaf (velvetleaf [18]; 75 g ai/ha): 100
pest or weed control at 75 g/ha (cocklebur [19]; Xanthium strumarium, 75 g ai/ha): 90%
pest or weed control at 75 g/ha (bindweed [20]; 75 g ai/ha): 70%
